Counter-ions that a name gives are not always drawn. Where a SMILES comes first, the peptide text is derived from it. [ ]: non-standard residue; d: D form. The star is where a group is joined. Tos = Cc1ccc(S(=O)(=O)*)cc1; Moc = COC(=O)*; For = O=C*
Legend:
Format in all cases: biochemical
[1] = target: T1, trypsin (Bos taurus, UniProt P00760); experiment: Trypsin-inhibiting activity, synthetic substrate PS-915; conditions: Table 4; PS-915, pH 8.0, 37° C.
T1 construct: purchased Worthington 3703
T1 sequence (P00760 24-246): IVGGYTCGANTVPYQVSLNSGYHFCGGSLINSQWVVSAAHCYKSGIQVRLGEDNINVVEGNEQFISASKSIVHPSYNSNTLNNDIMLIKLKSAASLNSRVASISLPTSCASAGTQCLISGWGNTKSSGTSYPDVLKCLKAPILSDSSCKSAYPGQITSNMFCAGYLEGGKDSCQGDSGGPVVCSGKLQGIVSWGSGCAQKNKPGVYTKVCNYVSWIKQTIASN
Excerpt: (§1) Synthetic substrates used for testing the inhibitory activity of the inhibitors on decomposition of substrates by the enzymes were as follows. For plasmin, PS-994 (H--D--Lys(Tos)--Phe--Lys--CHA·2HCl, mfd. by NITTO BOSEKI Co., Ltd.) was used; for thrombin and trypsin, PS-915 (H--D--Phe--Pro--Arg--CHA·2HCl, mfd. by NITTO BOSEKI Co., Ltd.); for Factor Xa, PS-2000 (Z--D--Lys--(HCO)--Gly--Arg--CHA·HCl, mfd. by NITTO BOSEKI Co., Ltd.); and for kallikrein, S-2302 (H--D--Pro--Phe--Arg--pNA, mfd., by Kabi Co., Ltd.).
(§2) As plasmin, standard plasmin of Sankyo Color Test α2 -D1 Kit was used in an amount of 0.3CU/ml. As thrombin, that of Sankyo Color Test ATIII kit was used in an amount of 1.2 NIHU/ml. As trypsin, that of cord 3703 of Worthington was used in an amount of 2 μg/ml. As human Factor Xa, that of Boehringer Manheim Co., Ltd. was used in an amount of 0.25 U/ml. As human plasma kallikrein, that of Kabi Co., Ltd. was used in an amount of 0.12 U/ml. As terminating color reagents, those for Sankyo Color Test Kit were used. The reactions were carried out at 37° C. unless otherwise specified.
Each of aqueous solutions (0.1 ml) of the inhibitors which solutions were various in their respective concentrations was added to 0.5 ml of a buffer solution (a 150 mM aqueous sodium chloride solution containing 150 mM Tris, pH 8.0), and the resulting solution was heated for 5 minutes. Then, 0.1 ml of a trypsin solution was added, followed by incubation for 5 minutes. Subsequently, 0.1 ml of a PS-915 solution (10 mM) was added, followed by incubation for 5 minutes. Thereafter, 2 ml of terminating color reagent [containing […] of soybean trypsin inhibitor (No. T-9003, available from Sigma Chemical Co.)] was added. After standing for 10 minutes, absorbance at 700 nm was measured and IC50 was determined in the manner described above.

[2] = target: T2, human plasma kallikrein (Homo sapiens, UniProt P03952); experiment: Kallikrein-inhibiting activity, synthetic substrate S-2302; conditions: Table 4; S-2302, pH 8.0, 37° C.
T2 construct: purchased Kabi Co., Ltd
T2 sequence (P03952 391-638 limits assumed): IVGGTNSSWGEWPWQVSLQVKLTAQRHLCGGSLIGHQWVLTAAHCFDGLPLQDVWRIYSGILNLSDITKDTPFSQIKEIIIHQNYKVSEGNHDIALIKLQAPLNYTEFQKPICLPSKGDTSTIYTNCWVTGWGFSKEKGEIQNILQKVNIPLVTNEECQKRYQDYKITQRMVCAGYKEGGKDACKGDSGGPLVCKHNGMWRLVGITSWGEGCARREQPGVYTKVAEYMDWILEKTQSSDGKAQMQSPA
T2 sequence (P03952 20-390 partner limits assumed): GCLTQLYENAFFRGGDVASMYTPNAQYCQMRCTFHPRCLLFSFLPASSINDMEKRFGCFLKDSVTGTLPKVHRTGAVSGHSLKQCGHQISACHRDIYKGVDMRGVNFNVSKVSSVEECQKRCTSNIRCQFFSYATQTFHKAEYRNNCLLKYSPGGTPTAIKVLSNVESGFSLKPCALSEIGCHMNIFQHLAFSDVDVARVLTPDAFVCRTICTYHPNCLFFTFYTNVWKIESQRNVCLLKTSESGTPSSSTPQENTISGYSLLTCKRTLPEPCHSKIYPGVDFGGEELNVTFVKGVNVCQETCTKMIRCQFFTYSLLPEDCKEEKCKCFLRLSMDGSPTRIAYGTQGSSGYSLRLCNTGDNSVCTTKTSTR
Excerpt: as §1, §2
Each of aqueous solutions (0.1 ml) of the inhibitors which solutions were various in their respective concentrations was added to 0.4 ml of a buffer solution (a 150 mM aqueous sodium chloride solution containing 50 mM Tris, pH 8.0), and the resulting mixture was heated for 5 minutes. Then, 0.1 ml of a kallikrein solution [containing 0.5% bovine serum albumin (No. A8022 available from Sigma Chemical Co.)] was added, followed by incubation for 5 minutes. Subsequently, a 10 mM S-2302 aqueous solution (0.1 ml) was added. The reaction was terminated by addition of a 20% aqueous acetic acid solution. Absorbance at 405 nm was measured and IC50 was measured in the manner described above.

[3] = target: T3, plasmin (Homo sapiens, UniProt P00747); experiment: Inhibitory activity on fibrinogen decomposition by plasmin (natural substrate); parameters: purchased Sankyo (Color Test α2 -D1 Kit); conditions: Table 4; 2% fibrinogen, pH 7.2, 37° C.
Procedure: The determination was carried out by a modification of the method described in Takaaki Aoyagi. "Koso Sogai Busshitsu (Enzyme Inhibiting Substances)" Kyoritsu Zensho, p. 12.
To 0.3 ml of phosphate buffer (pH 7.2) was added 0.1 ml of an aqueous solution of each inhibitor, and the resulting solution was heated at 37° C. for 5 minutes. Then, 0.1 ml of a plasmin solution (12 CU/ml) was added, followed by incubation for 5 minutes. Subsequently, 0.7 ml of phosphate buffer (pH 7.2) containing 2% fibrinogen was added, followed by incubation for 15 minutes. After completion of the reaction, a 12% aqueous hydrochloride acid solution (1.5 ml) containing 6% trichloroacetic acid was added, and the resulting mixture was lightly shaken, allowed to stand at room temperature for 15 minutes, and then centrifuged (3000 r.p.m., 10 minutes). The absorbance of the supernatant was measured at 280 nm, and a concentration of the inhibitor at which the absorbance was the same as when the amount of the enzyme added was reduced by half was determined as IC50.
Target sequence in this assay (P00747 581-810 limits assumed, species assumed): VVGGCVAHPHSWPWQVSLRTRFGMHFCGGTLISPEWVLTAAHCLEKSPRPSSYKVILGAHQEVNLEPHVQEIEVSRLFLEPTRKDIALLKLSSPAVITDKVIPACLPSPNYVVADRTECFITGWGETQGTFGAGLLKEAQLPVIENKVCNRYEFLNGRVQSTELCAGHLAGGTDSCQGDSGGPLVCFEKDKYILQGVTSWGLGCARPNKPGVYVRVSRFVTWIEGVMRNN
Target sequence in this assay (P00747 97-580 partner limits assumed, species assumed): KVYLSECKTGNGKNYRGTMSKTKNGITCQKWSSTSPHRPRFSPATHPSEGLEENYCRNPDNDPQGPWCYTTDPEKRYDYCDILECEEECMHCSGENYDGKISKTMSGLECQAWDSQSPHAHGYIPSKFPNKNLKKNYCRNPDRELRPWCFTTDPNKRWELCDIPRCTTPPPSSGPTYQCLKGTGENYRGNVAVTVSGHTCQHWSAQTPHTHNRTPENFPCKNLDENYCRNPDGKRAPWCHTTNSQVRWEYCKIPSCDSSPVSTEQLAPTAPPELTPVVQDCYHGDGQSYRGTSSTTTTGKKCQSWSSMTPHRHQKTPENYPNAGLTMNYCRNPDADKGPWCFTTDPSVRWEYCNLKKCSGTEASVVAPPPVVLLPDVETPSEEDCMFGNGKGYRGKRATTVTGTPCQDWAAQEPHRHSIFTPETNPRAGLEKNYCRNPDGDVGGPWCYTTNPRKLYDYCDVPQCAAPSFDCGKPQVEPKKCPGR

[4] = target: T3, plasmin; experiment: Inhibitory activity on fibrin decomposition by plasmin (natural substrate); parameters: Standard human serum (0.1 ml); from tissue; conditions: Table 4; concentration doubling time for complete dissolution, 25° C.
Procedure: The determination was carried out by the method of Okamoto et al. (see Keio Journal of Medicine, vol. 11, p. 105 (1962).
Standard human serum (0.1 ml), 0.4 ml of each of 1/20 M potassium phosphate sodium physiological salt buffer solutions (pH 7.4) containing various concentrations of each inhibitor, and 0.1 ml of a solution of streptokinase in physiological saline (1000 U/ml) were stirred and then cooled at 0° C. for 10 minutes. Thereto was added 0.05 ml of a solution of thrombin in physiological saline (100 NIHU/ml, mfd. by Parke Davis Co. Ltd.) at 0° C. After standing for 1 minute, 0.3 ml of a 0.33% solution of bovine fibrinogen (F-4753, available from Sigma Chemical Co.) in physiological saline was added, and the resulting mixture was allowed to stand at 25° C. The solubility was measured every minute by the standard of judgement of Nakamura (see Allergy, vol. 5, p. 1 (1956)) and the time required for complete dissolution was determined. A concentration of the inhibitor at which said time is twice that required in the absence of the inhibitor was determined as IC50.
Target sequence in this assay (P00747 581-810 limits assumed): as the sequence (P00747 581-810 limits assumed, species assumed) above
Target sequence in this assay (P00747 97-580 partner limits assumed): as the sequence (P00747 97-580 partner limits assumed, species assumed) above

IC50 [1] [µM]	IC50 [2] [µM]	IC50 [3] [µM]	IC50 [4] [µM]	SMILES
2.5	0.36	0.13	0.23	COC(=O)N[C@H](CCCCNS(=O)(=O)c1ccc(C)cc1)C(=O)N[C@@H](Cc1ccccc1)C(=O)N[C@H](C=O)CCCCN [Compound 2, N-α-Methoxycarbonyl-N-ε-(p-tosyl)-D-lysyl-L-phenylalanyl-L-lysinal hydrochloride] (Moc-[dK](Tos)-Phe-Lys-aldehyde)
7.8	1	0.19	0.24	Cc1ccc(S(=O)(=O)NCCCC[C@@H](NC=O)C(=O)N[C@@H](Cc2ccccc2)C(=O)N[C@H](C=O)CCCCN)cc1 [Compound 4, N-α-Formyl-N-ε-(p-tosyl)-D-lysyl-L-phenylalanyl-L-lysinal hydrochloride] (For-[dK](Tos)-Phe-Lys-aldehyde)

Reference: patent publication US4883863A, “Tripeptide derivatives and antiplasmin agents containing the same” (Nitto Boseki Co., Ltd., priority 1987, dated 1989)
